Experimental data as given in patent US20070166414A1, “METHOD FOR ENHANCING TAMOXIFEN EFFICACY AS A CANCER THERAPEUTIC” (priority 2006, published 2007).
“Also recorded” adds a separate entry of the source.

What was measured:
[1] = tested on: 8-oxo-deoxyguanosine (8-oxo-dG); test: LC-UV-MS-MS quantification of 8-oxo-dG (oxidative DNA damage) in normal mammary glands; type: in vivo, female Sprague-Dawley rats; conditions: in words, vs +control (DMBA); FIG. 3
Procedure: DNA Hydrolysis. DNA was extracted from normal mammary tissue from six different rats from each group and dissolved in water at ˜2 mg/mL. Aliquots (50-μL) containing ˜100 μg of DNA were mixed with 50 μL of buffer (50 mM ammonium acetate, 0.2 mM ZnCl2, pH 5.3), 10 μL of nuclease P1 (0.4 unit/μL), and 8 μL of alkaline phosphatase (1 unit/μL in 10 mM Tris pH 7.4) and incubated at 37° C. for 30 minutes. […] Bedford, Mass. USA). The solution was centrifuged for 15 minutes at 12,000 rpm and 4° C. just before LC-UV-MS-MS analysis. LC-UV-MS-MS Quantification of Oxidized Nucleosides. The HPLC system consisted of a ThermoFinnigan (San Jose, Calif. USA) Surveyor MS pump coupled with an autosampler, a PDA detector and a YMC (Wilmington, N.C. USA) ODS-AQ C18 column (2.0×250 mm, 5 μm), and guard column (4.0×20 mm). Absorbance detection at 240-290 nm was used for on-line HPLC quantification of dG and dC in the DNA hydrolysate, and a standard curve was prepared using standard solutions of dG and dC in the initial mobile phase. […] For DNA oxidation, the solvent system consisted of water/methanol 90:10 (v/v) at the start point and a linear gradient from 10 to 25% (v/v) methanol over 0-25 min. […] Selected reaction monitoring (SRM) was carried out using a TSQ Quantum triple quadruple mass spectrometer equipped with negative ion (for DNA oxidation) electrospray ionisation. Nitrogen was used as the sheath gas and auxiliary gas at 25 and 10 arbitrary units, respectively. The spray voltage was […]. Collision-induced dissociation (CID) was carried out using argon at 1.0-1.5 mTorr with the collision energy of 10-20 V. The span time per ion channel was 0.5 seconds during SRM. For 8-oxo-deoxyguanosine (8-oxo-dG), m/z 282>192 was selected as SRM (m/z 297>204 for the isotopically labelled internal standard). For 5-MedC, m/z 242>126 was selected as SRM (m/z 245>129 for the isotopically labelled internal standard).

PTEN = PTEN staining of endometrial tissue; type: in vivo, female rats; conditions: endometrium, diet 28 and 185 days
Procedure: (§1) Four groups of female rats were fed the basal AIN-76A diet supplemented with: 1) vehicle (control), (2) tamoxifen (0.125 mg/Kg), (3) daidzein (140 mg/Kg), (4) tamoxifen (0.125 mg/Kg) plus daidzein (140 mg/Kg) combination. Rats were sacrificed at either 28 days (short term exposure) or 185 days (long term exposure) after diet initiation, and the endometrium was removed and processed for immunohistochemical and biochemical evaluations.

endometrium DNA damage = test: DNA damage in endometrium by comet assay; type: in vivo, female rats; conditions: diet 28 or 185 days, vs basal diet
Procedure: as §1

[2] = tested on: proliferating cell nuclear antigen (PCNA); test: PCNA staining of endometrial tissue; type: in vivo, female rats; conditions: endometrium gland and stroma, diet 28 and 185 days, vs basal diet
Procedure: as §1

[3] = tested on: DMBA-induced rat mammary carcinogenesis; test: Chemoprevention study: DMBA-induced mammary tumors in rats fed experimental diets; conditions: for Survival (%): n=20; for Final tumor incidence: n=20, 114 days, * P<0.05, ** P<0.01 vs control (Fisher's exact test); for Latency (P-: P-value vs +control (DMBA) group, unpaired t-test; for Tumor burden (average tumor weight per group): in words, vs control (FIG. 2b)
Procedure: Chemoprevention Study. The diets were formulated by Harlan-Teklad (Madison, Wis. USA) to contain approximately the same amounts of protein, fat, and carbohydrates. The basal diet AIN-76A is free of soy products. The diets were also adjusted to contain similar amounts of methionine, cystine, and choline because these nutrients have been reported to affect mammary carcinogenesis. Daidzein and genistein were added in the basal diets as necessary (Table 1), at 140 and 105 mg/Kg of diet respectively. The selected isoflavone concentrations were based on the amounts present in the well-tolerated 16% (w/w) S PI diet (13). The tam oxifen dose of 0.125 mg/Kg diet was selected based on a previous study (24).
Virgin female Sprague-Dawley rats at 35 days of age were randomized by weight into 5 groups (20 rats per group) and fed basal AIN-76A diet. At 43 days of age, all but the control groups received basal diet supplemented with the appropriate test agents. After an additional week the animals received a single dose (12.5 mg) of DMBA intragastrically in sesame oil.
During the experimental period, the animals were weighed weekly. Palpation of mammary tumors began four weeks after animals received DMBA and continued until termination of the study. The date of appearance and location of every palpable tumor were recorded. Rats were observed daily to assess their general health. Rats were sacrificed by CO2 asphyxiation. Mammary tumors were coded by location, removed from the rat, and weighed. Sections of normal mammary tissue were also taken and either flash frozen in liquid nitrogen or formalin-fixed for paraffin embedding. The experiment and protocol was approved and performed in compliance with relevant laws and institutional guidelines according to the Animal Care Committee (01-142) and Animal Welfare Assurance (A3460.01) at the University of Illinois at Chicago.
Statistical analysis. A significant inhibition of tumor induction as achieved by administration of an inhibitor was defined as a statistically significant decrease (at 5% level) in tumor incidence, multiplicity, or latency period. Statistical comparison of tumor latency between groups was by unpaired t-test. The statistical significance of differences between mean tumor multiplicities was assessed using analysis of variance (ANOVA), and the Armitage'stest for trends in proportions (25). Tumor incidence rates were generated by the life table method, and compared by (one tailed) log-rank analysis (25).

[4] = LC-MS analysis of serum isoflavone levels; design: species or system female rats; conditions: rat, in vivo
Procedure: LC-MS analysis of isoflavone levels. Serum isoflavone levels of animals on the diets for four weeks without DMBA treatment were analysed. Blood was collected by orbital bleeding. Serum (400 μL) from each sample was transferred into a 2-mL Eppendorf tube. To each tube, 100 μL of 1 M (pH 5.0) buffer was added followed by vortex mixing, then 40 μL sulphatase (50 mg/mL, Sigma # S-3009) enzyme solution was added. After shaking, the mixture was incubated overnight in a 37° C. water bath (>17 h). The enzymatic hydrolysis was stopped by adding 1 mL ice-cold ethanol/acetonitrile (1:1; v/v), mixed and centrifuged at 4° C. for 15 minutes (10,000 rpm). The supernatant was removed and evaporated to dryness under vacuum. The resulting residue was reconstituted with 150 μL internal standard solution, and three aliquots (15 μL each) were analysed using LC-MS (HP 1100 LC-MS D) over an Xterra RP-18 column (2.1×100 mm, 3.5 μm). The mobile phase was 0.1% (v/v) formic acid followed by acetonitrile (containing 0.1% (v/v) formic acid). Elution was at 200 μL/min. The MSD was operated in negative electrospray ionisation mode with selected ion monitoring of m/z 253 for daidzein and internal standard (chrysin), m/z 269 for genistein, and m/z 241 for equol. Three to four samples from each group were analysed and resulting values are mean± SD.

[5] = LC-MS analysis of serum isoflavone levels; type: in vivo, female rats; conditions: diet for four weeks, no DMBA; 3-4 rats per group; ± SEM
[6] = tested on: implanted oestrogen-dependent MCF-7 cells; conditions: athymic mice; Cancer Research 62: 2474-2477; cited from earlier work
[7] = female, Sprague-Dawley, 4 weeks

Row | SMILES | 8-oxo-dG levels (ratio 8-oxo-dG/dG) in mammary glands [1] | Survival (%) ([3]; DMBA-exposed rats on diet) | Final tumor incidence ([3]; DMBA-exposed rats on diet) | Latency (P- [3] | Tumor burden (average tumor weight per group) [3] | Mean body weight ([3]; rat, in vivo) | Mean serum level of DAI (daidzein) [4, 7] | Mean serum level of Equol [4, 7] | Mean serum level of GEN (genistein) [4, 7] | Mean serum level of Equol [4] | Mean serum level of GEN (genistein) [4] | other results
1 | O=c1c(-c2ccc(O)cc2)coc2cc(O)ccc12 [DAI, 7-hydroxy-3-(4-hydroxyphenyl)-4H-1-benzopyran-4-one] | suppressed the levels of 8-oxo-dG equal to those of the group never exposed to DMBA | 95% | 85 | 0.322 | reduced tumor burden as effectively as tamoxifen | 99.2 | 3.6 ± 0.9 ng/mL | 115.0 ± 20.6 ng/mL | 1.2 ± 4.7 ng/mL | very high concentrations | very low levels | PTEN expression (PTEN; listed as daidzein): reduction in PTEN expression; PTEN expression (PTEN; listed as diadzein): reduced PTEN expression; DNA damage (comet assay) (endometrium DNA damage; listed as Daidzein): no damaging effect; DNA damage (comet assay) (endometrium DNA damage; listed as diadzein): did not affect the level of DNA damage; PCNA expression ([2]; listed as daidzein): increased expression of PCNA; PCNA expression ([2]; listed as diadzein): increased PCNA
2 | O=c1c(-c2ccc(O)cc2)coc2cc(O)cc(O)c12 [GEN, genistein] | ineffective | 95% | 85 | 0.326 | ineffective | – | – | – | – | – | – | Mean serum level of DAI (daidzein) [5]: very low levels; Mean serum level of Equol [5]: not detectable; Effect on tamoxifen inhibition of growth of implanted MCF-7 cells [6]: negated the inhibitory effect of tamoxifen; Mean body weight ([3]; DMBA-exposed rats on diet, control = 100.0): 100.7
3 | CC/C(=C(\c1ccccc1)c1ccc(OCCN(C)C)cc1)c1ccccc1 [TAM, tamoxifen] | ineffective | 90% | 73* | 0.013 | – | 94.4 | 0.2 ± 0.0 ng/mL | 0.0 ng/mL | 0.8 ± 0.1 ng/mL | not detectable | very low levels | PTEN expression (PTEN): reduction in PTEN expression; also recorded: reduced PTEN expression; DNA damage (comet assay) (endometrium DNA damage; listed as Tamoxifen): significantly increased DNA damage; DNA damage (comet assay) (endometrium DNA damage; listed as tamoxifen): increased DNA damage; PCNA expression [2]: increased expression of PCNA; also recorded: increased proliferating cell nuclear antigen (PCNA) expression; Increase of tumor latency over the control value ([3]; compared to positive control): 46%; Mean serum level of DAI (daidzein) [4]: very low levels
